Test results from patent US11479802B2, “Assays for screening activity of modulators of members of the hydroxy steroid (17-beta) dehydrogenase (HSD17B) family” (Regeneron Pharmaceuticals, Inc., priority 2017, dated 2022).
Counter-ions that a name gives are not always drawn.

Target: T1, human HSD17B13 (Homo sapiens, UniProt Q7Z5P4)
T1 sequence (Q7Z5P4 20-300): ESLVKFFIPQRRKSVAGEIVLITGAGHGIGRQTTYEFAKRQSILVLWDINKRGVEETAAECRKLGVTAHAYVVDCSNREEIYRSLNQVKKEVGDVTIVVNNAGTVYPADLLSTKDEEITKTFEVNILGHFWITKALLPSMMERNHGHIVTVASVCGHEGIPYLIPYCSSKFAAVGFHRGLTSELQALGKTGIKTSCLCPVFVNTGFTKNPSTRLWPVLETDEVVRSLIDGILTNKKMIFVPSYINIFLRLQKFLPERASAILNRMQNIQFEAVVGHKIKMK
Assay: Substrate screening of steroid and bioactive lipid libraries against purified recombinant HSD17B13 (NADH-linked luciferase assay)
Format: biochemical
Settings: for HSD17B13 Enzymatic Activity Relative Light Units: 500 μM NAD+, 100 ng enzyme, 3 hours at 23° C.; for HSD17B13 Enzymatic Activity Percent Estradiol Control: normalized to 50 μM estradiol after subtraction of 5% DMSO
Method in brief: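 Recombinant human HSD17B13 (100 ng) incubated 3 h at 23° C in 0.2 M Tris-HCl pH 7.5 with 500 μM NAD+ and 5 μM bioactive lipid or 50 μM steroid (5% DMSO). NADH measured by luciferase luminescence after 1 h; values as percent of 50 μM estradiol control after 5% DMSO subtraction.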

[1] = Bioactive Lipid Library, 5 μM bioactive lipid (Estradiol Control 50 μM)
[2] = Bioactive Lipid Library, 5 μM bioactive lipid

Compound	HSD17B13 Enzymatic Activity Relative Light Units [1] [RLU]	HSD17B13 Enzymatic Activity Percent Estradiol Control [2] [%]	HSD17B13 Enzymatic Activity Relative Light Units (Steroid Library, 50 μM steroid) [RLU]	HSD17B13 Enzymatic Activity Percent Estradiol Control (Steroid Library, 50 μM steroid) [%]
CCCCC[C@H](O)/C=C/[C@H]1C(=O)CC(=O)[C@@H]1C/C=C\CCCC(=O)O [Prostaglandin K2]	155600	−10.08	–	–
C[C@]12CC[C@H](O)C[C@H]1CC[C@@H]1[C@@H]2CC[C@]2(C)[C@@](O)(c3ccoc3)CC[C@]12O [Rostafuroxin]	–	–	187520	0.47
CCCCC/C=C\C/C=C\C/C=C\CC#CCCCC(=O)O [5,6-dehydro Arachidonic Acid]	210160	−8.68	–	–
CC/C=C\C/C=C\C/C=C\CC(O)/C=C/C=C\C/C=C\CCC(=O)O (racemic) [(±)11-HDHA]	1259280	72.31	–	–
CCCCC[C@H](O)/C=C/[C@H]1[C@@H](O)CC(=O)[C@@H]1C/C=C\CCCC(=O)O [11β-Prostaglandin E2]	354840	5.67	–	–
CCCCC[C@@H](/C=C/C=C\CCCCCCCC(=O)O)OO [13(S)-HpODE]	183040	−7.72	–	–
CCCCC/C=C\C[C@@H](O)/C=C/C=C/C=C\[C@@H](O)CCCC(=O)NCCO [Leukotriene B4 Ethanolamide]	1948920	131.68	–	–
CC#CCC(C)[C@H](O)/C=C/[C@@H]1[C@H]2C/C(=C/CCCC(=O)O)C[C@H]2C[C@H]1O (stereo partly drawn) [Iloprost]	358880	5.99	–	–
CCCCC/C=C\C\C=C/C=C/C=C/[C@H](O)[C@@H](O)CCCC(=O)O [5(S),6(S)-DiHETE]	309080	4.07	–	–
CCCCC/C=C\CC1OC1CCCCCCCC(=O)O (racemic) [(±)9(10)-EpOME]	354560	2.23	–	–
CCCCC[C@H](O)/C=C/[C@H]1C=CC(=O)[C@@H]1CCCCCCC(=O)NCCCCCNC(=O)CCCC[C@@H]1SC[C@@H]2NC(=O)N[C@@H]21 [Prostaglandin A1-biotin]	309320	2.07	–	–
O=P(O)(O)O[C@@H]1C(O)[C@H](OP(=O)(O)O)[C@@H](O)C(O)[C@H]1O (stereo partly drawn) [D-myo-Inositol-1,3-diphosphate (sodium salt)]	487280	12.25	–	–
CCCCC[C@@H](O)/C=C/C=C\CCCCCCCCCC(=O)O [15(R)-HEDE]	1862960	117.20	–	–
O=P(O)(O)O[C@@H]1[C@H](OP(=O)(O)O)[C@H](OP(=O)(O)O)[C@@H](O)[C@H](O)[C@H]1OP(=O)(O)O [D-myo-Inositol-1,2,3,6-tetraphosphate (sodium salt)]	424280	7.49	–	–
O=P(O)(O)O[C@@H]1[C@@H](OP(=O)(O)O)[C@@H](OP(=O)(O)O)[C@@H](O)[C@H](O)[C@H]1OP(=O)(O)O [D-myo-Inositol-2,3,4,5-tetraphosphate (ammonium salt)]	372320	3.57	–	–
CCCCC/C=C\C/C=C\C[C@H](O)/C=C/C=C\CCCC(=O)O [9(S)-HETE]	497640	15.68	–	–
CC(=O)OC1=CC[C@H]2[C@@H]3CC[C@H]4CC=CC[C@]4(C)[C@H]3CC[C@]12C [5alpha-Androsta-2,16-dien-17-yl acetate]	–	–	197640	0.65
CC/C=C\C[C@H](O)/C=C/[C@@H]1[C@@H](C/C=C\CCCC(=O)O)[C@@H](O)C[C@H]1O [Prostaglandin F3α]	385360	8.08	–	–
